From patent publication US12065443B2, “Compounds and pharmaceutical compositions thereof for the treatment of diseases” (priority 2017, dated 2024)
Like-named read-outs stand apart in the source and are kept apart here.

Tests used:
[1] = tested on: LPS-induced TNFα secretion in monocyte-derived macrophages (MdM); assay: MdM assay: LPS-triggered TNFα (ELISA); assay type: cell-based, human; details: Homo sapiens, Macrophage, LPS-triggered TNFα inhibition
Outline: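 Human CD14+ monocytes isolated from buffy-coat PBMCs by magnetic beads, differentiated to macrophages; on day 10 compound preincubated 1 h at 37 °C, then LPS 200 ng/mL added (0.2% DMSO). Supernatant taken after 20 h; TNFα quantified by sandwich ELISA against standard curve.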

SIK2 [2] = target: T1, SIK2 (Homo sapiens, UniProt Q9H0K1); assay: biochemical; details: ADP-Glo SIK kinase assay
T1 construct: purchased ThermoFisher Scientific PV4792
Procedure: (§1) The ADP-Glo™ kinase assay is a luminescent technology assay which measures the ADP formed from a kinase reaction. […] In a second step the kinase reactions are terminated and all the remaining ATP is depleted. In a final step the ADP is converted into ATP and this newly synthesized ATP is measured by using a luciferase/luciferin reaction. The generated light is measured using an Envision plate reader, wherein the luminescent signal obtained positively correlates with the kinase activity.
(§2) 1% DMSO and 10 μM staurosporine final concentrations are used as negative and positive controls.
(§3) 2 μL enzyme-substrate mixture is added to the assay plates.
(§4) The reaction is started by adding 2 μL diluted ATP on the assay plates. Plates are centrifuged for a few seconds at 1000 rpm and gently shaken for 2 min followed by an incubation at RT for 120 min.
(§5) The reactions are stopped and the unconsumed ATP is depleted by adding 5 μL ADP-Glo Reagent (Promega, Cat #V912B) to the reaction. The plates are centrifuged for a few seconds at 1000 rpm and incubated at RT for 40 min (ATP depletion).
(§6) The ADP is converted to ATP and luciferase and luciferin is introduced to detect ATP by adding 10 μL Kinase Detection Reagent (Promega, Cat #V913B+V914B) to the reaction. The plates are centrifuged for a few seconds at 1000 rpm and incubated at RT for 30 min (ADP detection).
(§7) Luminescence is measured on an Envision plate reader (PerkinElmer Inc.).

SIK3 [3] = target: T2, SIK3 (Homo sapiens, UniProt Q9Y2K2); assay: biochemical; details: ADP-Glo SIK kinase assay
T2 construct: purchased SignalChem S12-11G-100
Procedure: as §1, §2, §3, §4, §5, §6, §7

SIK1 [4] = target: T3, SIK1 (Homo sapiens, UniProt P57059); assay: biochemical; details: ADP-Glo SIK kinase assay
T3 construct: purchased Carna Biosciences 02-131
Procedure: as §1, §2, §3, §4, §5, §6, §7

SIK2 [5] = target: T1, SIK2; assay: biochemical; details: 33P radioactive SIK kinase assay, AMARA peptide, 10 μM ATP
Outline: (§8)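 Read-out: ^33P incorporated into AMARA peptide, counted on filter plates, taken as kinase activity. Reactions start on addition of labeled/unlabeled ATP to enzyme plus substrate and end with phosphoric acid. Controls: 1% DMSO (negative) and 10 μM staurosporine (positive), final.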

SIK3 [6] = target: T2, SIK3; assay: biochemical
Outline: as §8

SIK1 [7] = target: T3, SIK1; assay: biochemical; details: 33P radioactive SIK kinase assay, AMARA peptide, 10 μM ATP; read-out: SIK1 IC50
Outline: as §8

T3 sequence (P57059 whole entry): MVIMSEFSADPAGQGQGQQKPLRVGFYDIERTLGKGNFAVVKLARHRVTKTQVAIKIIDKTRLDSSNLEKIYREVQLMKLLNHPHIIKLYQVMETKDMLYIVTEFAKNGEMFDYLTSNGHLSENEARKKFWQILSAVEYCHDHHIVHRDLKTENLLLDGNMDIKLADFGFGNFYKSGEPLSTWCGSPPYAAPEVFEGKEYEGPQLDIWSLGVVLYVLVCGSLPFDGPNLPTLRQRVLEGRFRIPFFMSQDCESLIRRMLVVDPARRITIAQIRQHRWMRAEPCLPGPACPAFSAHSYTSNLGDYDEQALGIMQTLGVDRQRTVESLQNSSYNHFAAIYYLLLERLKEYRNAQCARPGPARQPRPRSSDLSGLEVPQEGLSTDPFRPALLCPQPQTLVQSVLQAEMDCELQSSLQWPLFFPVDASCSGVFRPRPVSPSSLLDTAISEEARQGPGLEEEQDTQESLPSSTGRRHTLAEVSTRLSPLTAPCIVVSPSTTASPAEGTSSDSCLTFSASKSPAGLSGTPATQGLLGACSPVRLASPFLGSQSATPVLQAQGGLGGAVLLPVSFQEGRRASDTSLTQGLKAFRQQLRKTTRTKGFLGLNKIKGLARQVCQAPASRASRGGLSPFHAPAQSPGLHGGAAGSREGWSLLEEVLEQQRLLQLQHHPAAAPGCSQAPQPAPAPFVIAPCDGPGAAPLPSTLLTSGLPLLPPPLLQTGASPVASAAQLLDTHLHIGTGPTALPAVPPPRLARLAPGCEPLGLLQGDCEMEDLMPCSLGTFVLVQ
T2 sequence (Q9Y2K2 whole entry): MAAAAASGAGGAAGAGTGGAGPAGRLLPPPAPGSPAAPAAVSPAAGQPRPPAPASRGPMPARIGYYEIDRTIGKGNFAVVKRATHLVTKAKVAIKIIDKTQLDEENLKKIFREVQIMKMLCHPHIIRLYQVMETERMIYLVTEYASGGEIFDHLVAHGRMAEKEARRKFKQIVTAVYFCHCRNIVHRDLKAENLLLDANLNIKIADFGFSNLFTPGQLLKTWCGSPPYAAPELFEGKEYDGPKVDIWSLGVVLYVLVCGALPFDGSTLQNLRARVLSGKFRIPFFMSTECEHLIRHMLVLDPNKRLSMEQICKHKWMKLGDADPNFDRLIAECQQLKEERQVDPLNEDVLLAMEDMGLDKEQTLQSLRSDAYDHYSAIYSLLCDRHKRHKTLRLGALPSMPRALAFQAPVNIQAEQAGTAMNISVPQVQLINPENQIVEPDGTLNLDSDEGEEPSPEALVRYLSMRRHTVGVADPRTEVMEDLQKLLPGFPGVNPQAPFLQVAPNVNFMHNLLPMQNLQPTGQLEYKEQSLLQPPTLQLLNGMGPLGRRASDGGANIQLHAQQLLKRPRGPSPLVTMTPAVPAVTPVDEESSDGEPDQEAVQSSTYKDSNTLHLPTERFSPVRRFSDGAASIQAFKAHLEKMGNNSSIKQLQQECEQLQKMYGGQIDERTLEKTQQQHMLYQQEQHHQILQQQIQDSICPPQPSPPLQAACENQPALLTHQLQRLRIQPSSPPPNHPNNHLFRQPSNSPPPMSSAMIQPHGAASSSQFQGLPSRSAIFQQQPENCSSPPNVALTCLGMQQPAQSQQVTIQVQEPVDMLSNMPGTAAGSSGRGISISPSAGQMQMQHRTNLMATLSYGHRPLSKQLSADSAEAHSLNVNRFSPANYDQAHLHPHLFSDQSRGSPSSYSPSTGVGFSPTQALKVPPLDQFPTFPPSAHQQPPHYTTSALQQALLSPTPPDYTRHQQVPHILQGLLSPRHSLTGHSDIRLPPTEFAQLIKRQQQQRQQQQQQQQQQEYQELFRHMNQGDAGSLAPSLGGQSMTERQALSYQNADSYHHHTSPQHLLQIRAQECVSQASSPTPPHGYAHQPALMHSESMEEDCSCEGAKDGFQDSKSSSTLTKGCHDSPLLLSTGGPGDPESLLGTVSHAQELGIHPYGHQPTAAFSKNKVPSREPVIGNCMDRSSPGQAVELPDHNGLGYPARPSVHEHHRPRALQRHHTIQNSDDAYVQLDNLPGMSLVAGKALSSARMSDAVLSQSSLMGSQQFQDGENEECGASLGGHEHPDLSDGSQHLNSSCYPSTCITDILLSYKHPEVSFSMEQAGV
T1 sequence (Q9H0K1 whole entry): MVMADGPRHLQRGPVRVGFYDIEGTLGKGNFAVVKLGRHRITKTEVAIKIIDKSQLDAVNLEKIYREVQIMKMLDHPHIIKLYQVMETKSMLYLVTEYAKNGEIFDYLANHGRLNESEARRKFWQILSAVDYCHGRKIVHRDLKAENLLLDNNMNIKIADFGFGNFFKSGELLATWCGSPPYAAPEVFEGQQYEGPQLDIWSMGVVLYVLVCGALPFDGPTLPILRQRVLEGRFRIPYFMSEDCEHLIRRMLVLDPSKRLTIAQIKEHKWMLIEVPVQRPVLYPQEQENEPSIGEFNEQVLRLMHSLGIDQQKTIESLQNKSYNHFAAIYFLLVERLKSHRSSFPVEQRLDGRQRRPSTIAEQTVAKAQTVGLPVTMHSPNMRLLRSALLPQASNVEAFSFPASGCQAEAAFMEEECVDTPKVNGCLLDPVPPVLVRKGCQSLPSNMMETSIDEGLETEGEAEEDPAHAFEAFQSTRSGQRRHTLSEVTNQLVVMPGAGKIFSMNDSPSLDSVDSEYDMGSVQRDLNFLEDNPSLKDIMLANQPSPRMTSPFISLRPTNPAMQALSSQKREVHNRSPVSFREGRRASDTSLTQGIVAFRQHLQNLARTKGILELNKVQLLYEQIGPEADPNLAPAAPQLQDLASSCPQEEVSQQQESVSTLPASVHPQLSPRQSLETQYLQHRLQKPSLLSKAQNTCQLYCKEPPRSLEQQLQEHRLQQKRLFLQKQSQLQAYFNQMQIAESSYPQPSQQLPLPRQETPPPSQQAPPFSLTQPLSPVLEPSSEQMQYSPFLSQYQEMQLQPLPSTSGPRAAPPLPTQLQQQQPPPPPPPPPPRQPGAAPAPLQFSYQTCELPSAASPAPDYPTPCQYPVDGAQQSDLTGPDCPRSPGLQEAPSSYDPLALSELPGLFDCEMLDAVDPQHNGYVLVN

Row | EC50 [1] | IC50 (SIK2 [2]) | IC50 (SIK3 [3]) | IC50 (SIK1 [4]) | IC50 (SIK2 [5]) | IC50 (SIK3 [6]) | IC50 (SIK1 [7]) | Compound
1 | 100 to 1000 nM | 0.01 to 10 nM | 0.01 to 10 nM | 0.01 to 10 nM | – | – | – | CCN(CC)CCOC(=O)C(C)(C)n1cc(-c2ccn3c(-c4cc(OC)c(C(=O)NCC(F)(F)F)c(OC)c4)cnc3c2)cn1 [Cpd 305, 2-(diethylamino)ethyl 2-[4-[3-[3,5-dimethoxy-4-(2,2,2-trifluoroethyl-carbamoyl)phenyl]imidazo[1,2-a]pyridin-7-yl]pyrazol-1-yl]-2-methyl-propanoate]
2 | 0.1 to 100 nM | 0.01 to 10 nM | 0.01 to 10 nM | 0.01 to 10 nM | – | – | – | COc1cc(-c2cnc3cc(-c4cc(C)no4)ccn23)cc(OC(F)F)c1C(=O)NC1CC1 [compound 270, N-cyclopropyl-2-(difluoromethoxy)-6-methoxy-4-[7-(3-methylisoxazol-5-yl)imidazo[1,2-a]pyridin-3-yl]benzamide]
3 | 0.1 to 100 nM | 0.01 to 10 nM | 0.01 to 10 nM | 10 to 100 nM | – | – | – | COc1cc(-c2cnc3cc(-c4cnn(C)c4)ccn23)cc(F)c1C(=O)NC1CC1 [Cpd 276, N-cyclopropyl-2-fluoro-6-methoxy-4-[7-(1-methylpyrazol-4-yl)imidazo[1,2-a]pyridin-3-yl]benzamide]
4 | 0.1 to 100 nM | 0.01 to 10 nM | 0.01 to 10 nM | 0.01 to 10 nM | – | – | – | COc1cc(-n2cnc3cc(-c4cn[nH]c4)ccc32)cc(OC(F)F)c1C(=O)NC1CC1 [compound 306, N-cyclopropyl-2-(difluoromethoxy)-6-methoxy-4-[5-(1H-pyrazol-4-yl)benzimidazol-1-yl]benzamide]
5 | 0.1 to 100 nM | 0.01 to 10 nM | 0.01 to 10 nM | 0.01 to 10 nM | – | – | – | COc1cc(-c2cnc3cc(-c4ccc(C5CC5)nn4)ccn23)cc(OC(F)F)c1C(=O)NC1CC1 [compound 285, N-cyclopropyl-4-[7-(6-cyclopropyl-pyridazin-3-yl)imidazo[1,2-a]pyridin-3-yl]-2-(difluoromethoxy)-6-methoxy-benzamide]
6 | 0.1 to 100 nM | 0.01 to 10 nM | 0.01 to 10 nM | 0.01 to 10 nM | – | – | – | CCOC(=O)C(C)(C)n1cc(-c2ccn3c(-c4cc(OC)c(C(=O)NCC(F)(F)F)c(OC)c4)cnc3c2)cn1 [Cpd 295, ethyl 2-[4-[3-[3,5-dimethoxy-4-(2,2,2-trifluoroethyl-carbamoyl)phenyl]imidazo[1,2-a]pyridin-7-yl]pyrazol-1-yl]-2-methyl-propanoate]
7 | 0.1 to 100 nM | 0.01 to 10 nM | 0.01 to 10 nM | 0.01 to 10 nM | 0.01 to 10 nM | 0.01 to 10 nM | 0.01 to 10 nM | COc1cc(-c2cnc3cc(-c4cnn(C)c4)ccn23)cc(OC)c1C(=O)N1CC(C(F)(F)F)C1 [compound 213, [2,6-dimethoxy-4-[7-(1-methylpvrazol-4-yl)imidazo[1,2-a]pyridin-3-yl]phenyl]-[3-(trifluoromethyl)azetidin-1-yl]methanone]
8 | > 5000 nM | > 500 nM | > 500 nM | > 500 nM | > 500 nM | > 500 nM | > 500 nM | COc1cc(-n2cnc3cc(-c4cnn(C)c4)ccc32)cc(OC)c1C(=O)NC(C)(C)C [compound 76, N-tert-butyl-2,6-dimethoxy-4-[5-(1-methylpyrazol-4-yl)benzimidazol-1-yl]benzamide]
9 | 1000 to 5000 nM | 10 to 100 nM | 10 to 100 nM | 100 to 500 nM | 10 to 100 nM | 100 to 500 nM | 100 to 500 nM | COc1cc(-c2cnc3cc(-c4cn(C)cn4)ccn23)cc(OC)c1C(=O)N[C@@H](C)C(F)(F)F [compound 216, 2,6-dimethoxy-4-[7-(1-methylimidazol-4-yl)imidazo[1,2-a]pyridin-3-yl]-N-[(1S)-2,2,2-trifluoro-1-methyl-ethyl]benzamide]
10 | 100 to 1000 nM | 0.01 to 10 nM | 0.01 to 10 nM | 10 to 100 nM | – | – | – | COCCOc1cc(-c2cnc3cc(-c4cnn(C)c4)ccn23)cc(OC)c1C(=O)NC1CC1 [Cpd 278, N-cyclopropyl-2-methoxy-6-(2-methoxyethoxy)-4-[7-(1-methylpyrazol-4-yl)imidazo[1,2-a]pyridin-3-yl]benzamide]
11 | 0.1 to 100 nM | 0.01 to 10 nM | 0.01 to 10 nM | 10 to 100 nM | – | – | – | COc1cc(-c2cnc3cc(-c4ccc(C)nn4)ccn23)cc(OC(F)F)c1C(=O)NC1CC1 [Cpd 273, N-cyclopropyl-2-(difluoromethoxy)-6-methoxy-4-[7-(6-methylpyridazin-3-yl)imidazo[1,2-a]pyridin-3-yl]benzamide]
12 | 0.1 to 100 nM | 0.01 to 10 nM | 0.01 to 10 nM | 0.01 to 10 nM | – | – | – | COc1cc(-c2cnc3cc(-c4cn[nH]c4)ccn23)cc(OC(F)F)c1C(=O)NC1CC1 [compound 307, N-cyclopropyl-2-(difluoromethoxy)-6-methoxy-4-[7-(1H-pyrazol-4-yl)imidazo[1,2-a]pyridin-3-yl]benzamide]
13 | > 5000 nM | 0.01 to 10 nM | 10 to 100 nM | 10 to 100 nM | – | – | – | COc1cc(-c2cnc3cc(-c4cnn(C)c4)c(OCC(=O)O)cn23)cc(OC(F)F)c1C(=O)NC1CC1 [Cpd 299, 2-[3-[4-(cyclopropyl-carbamoyl)-3-(difluoromethoxy)-5-methoxy-phenyl]-7-(1-melhylpyrazol-4-yl)imidazo[1,2-a]pyridin-6-yl]oxyacetic acid]
14 | 0.1 to 100 nM | 0.01 to 10 nM | 0.01 to 10 nM | 0.01 to 10 nM | – | – | – | CCOC(=O)C(Cn1cc(-c2ccn3c(-c4cc(OC)c(C(=O)NCC(F)(F)F)c(OC)c4)cnc3c2)cn1)C(C)C (centres unmarked) [Cpd 294]
15 | 0.1 to 100 nM | 0.01 to 10 nM | 0.01 to 10 nM | 0.01 to 10 nM | – | – | – | COc1ccc(-c2ccn3c(-c4cc(OC)c(C(=O)NC5CC5)c(OC(F)F)c4)cnc3c2)cn1 [compound 267, N-cyclopropyl-2-(difluoromethoxy)-6-methoxy-4-[7-(6-methoxy-3-pyridyl)imidazo[1,2-a]pyridin-3-yl]benzamide]
16 | 100 to 1000 nM | 0.01 to 10 nM | 0.01 to 10 nM | 10 to 100 nM | – | – | – | COc1cc(-c2cnc3cc(-c4cncn4C)ccn23)cc(OC(F)F)c1C(=O)NC1CC1 [compound 274, N-cyclopropyl-2-(difluoromethoxy)-6-methoxy-4-[7-(3-methylimidazol-4-yl)imidazo[1,2-a]pyridin-3-yl]benzamide]
17 | 100 to 1000 nM | 10 to 100 nM | 0.01 to 10 nM | 100 to 500 nM | 10 to 100 nM | 0.01 to 10 nM | 100 to 500 nM | COc1cc(-c2cnc3cc(-c4cnnc(C)c4)ccn23)cc(OC)c1C(=O)NCC(F)(F)F [compound 252, 2,6-dimethoxy-4-[7-(6-methylpyridazin-4-yl)imidazo[1,2-a]pyridin-3-yl]-N-(2,2,2-trifluoroethyl)benzamide]
18 | 0.1 to 100 nM | 0.01 to 10 nM | 0.01 to 10 nM | 0.01 to 10 nM | – | – | – | CCOC(=O)C(C(C)C)n1cc(-c2ccn3c(-c4cc(OC)c(C(=O)NCC(F)(F)F)c(OC)c4)cnc3c2)cn1 (centres unmarked) [Cpd 296, ethyl 2-[4-(3-[3,5-dimethoxy-4-(2,2,2-trifluoro-ethylcarbamoyl)phenyl]imidazo[1,2-a]pyridin-7-yl]pyrazol-1-yl]-3-methyl-butanoate]
19 | 1000 to 5000 nM | 0.01 to 10 nM | 0.01 to 10 nM | 0.01 to 10 nM | – | – | – | CCOC(=O)COc1cn2c(-c3cc(OC)c(C(=O)NC4CC4)c(OC(F)F)c3)cnc2cc1-c1cnn(C)c1 [Cpd 298, ethyl 2-[3-[4-(cyclopropyl-carbamoyl)-3-(difluoromethoxy)-5-methoxy-phenyl]-7-(1-methylpvrazol-4-yl)imidazo[1,2-a]pyridin-6-yl]oxyacetate]
20 | 100 to 1000 nM | 0.01 to 10 nM | 0.01 to 10 nM | 0.01 to 10 nM | – | – | – | COc1cc(-c2cnc3cc(-c4cnn(CC(=O)OCC5CCCO5)c4)ccn23)cc(OC)c1C(=O)NCC(F)(F)F (centres unmarked) [Cpd 297, tetrahydrofuran-2-ylmethyl 2-[4-[3-[3,5-dimethoxy-4-(2,2,2-trifluoro-ethylcarbamoyl)phenyl]imidazo[1,2-a]pyridin-7-yl]pyrazol-1-yl]acetate]
